These results are taken from patent USRE32016E, “Analysis of lactic acid or lactate using lactate oxidase” (Eastman Kodak Company, priority 1981, dated 1985).

By Km is commonly meant the concentration of substrate that gives half-maximal velocity.

The target of the assay is lactate oxidase from Streptococcus faecalis ATCC 12755 (Enterococcus casseliflavus, UniProt C9AC47). To be noted: read-out: Km for L(+)-lactate; 30° C., potassium phosphate buffer pH 7.0.
lactate oxidase from Streptococcus faecalis ATCC 12755, sequence (C9AC47 entry or part of it): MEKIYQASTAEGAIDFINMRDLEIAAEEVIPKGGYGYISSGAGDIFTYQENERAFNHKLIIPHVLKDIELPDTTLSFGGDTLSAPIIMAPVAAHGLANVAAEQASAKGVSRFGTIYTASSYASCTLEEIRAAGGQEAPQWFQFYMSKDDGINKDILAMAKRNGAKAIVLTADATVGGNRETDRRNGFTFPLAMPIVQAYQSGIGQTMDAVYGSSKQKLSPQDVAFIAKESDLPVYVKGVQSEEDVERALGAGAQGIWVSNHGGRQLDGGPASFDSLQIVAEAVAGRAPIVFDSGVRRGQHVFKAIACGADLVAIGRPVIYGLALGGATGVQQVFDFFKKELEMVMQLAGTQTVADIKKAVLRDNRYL

Procedure: For spectrophotometric assay of the lactate oxidase standard reaction mixtures contained in a total volume of 1.0 ml: 100 μmoles potassium phosphate buffer, pH 7.0, 25 μmoles lactic acid, 30 μg horseradish peroxidase (5.6 purpurogallin units), and 0.25 μmoles orthodianisidine. Samples were equilibrated at 30° C. and then reactions initiated by addition of S. faecalis lactate oxidase. Absorbance at 430 nm was measured in a Beckman A-25 Spectrophotometer. Initial rates were calculated from the linear portion of the curve and converted to units of lactate oxidase activity were appropriate. One unit=1 μmole of dye produced per minute at 30° C. using an ε=1.1×10^4 for orthodianisidine.
Reaction mixtures contained in a total volume of 1.0 ml: 90 μmoles potassium phosphate buffer, (pH 7.0), 0.2 μmoles orthodianisidine, or 96 μg 4-aminoantipyrene hydrochloride and 32 μg 1,7-dihydroxynaphthalene, 25 μg horseradish peroxidase (5.6-purpurogallin units) and 0.64 mg lactate oxidase (0.4 units).
Samples were equilibrated at 30° C. and the initial absorbance measured at 430 nm. […] For each serum sample, a blank, which contained all components except the lactate oxidase, was treated in the same manner as the sample. The ΔA430 for each blank was subtracted from the ΔA430 of the appropriate sample and the lactate concentration was determined by comparison to a lactate standard curve. […]

For `C[C@H](O)C(=O)O` [L(+)-lactate], the Michaelis-Menten constant (Km) came to 200 µM.
